{"source": "patent US12194042B2", "about": "“Uses” (INTRA-CELLULAR THERAPIES, INC., priority 2018, dated 2025)", "assay_type_in_all_cases": "in vivo, human", "key": {"[1]": {"test_system": "patients with mild to moderate Parkinson's Disease (PD)", "assay": "Phase 1/2 randomized, double-blind, placebo-controlled, multiple rising dose clinical study: safety and tolerability", "protocol": "(§1) A Phase 1/2 randomized, double-blind, placebo-controlled, multiple rising dose clinical study was carried out to evaluate Compound 1 (below) in patients with mild to moderate Parkinson's Disease (PD).\n(§2) The study is designed to evaluate the safety and tolerability of Compound 1 in patients who are maintained on stable PD therapy. Another objective is to evaluate the pharmacokinetic profile of Compound 1 and explore its potential utility to control motor fluctuations and to evaluate treatment of non-motor symptoms (e.g., daytime sleepiness, dysautonomia) associated with PD. Biomarkers of disease progression (i.e., inflammation) are assessed.\n(§3) 40 patients with idiopathic PD are recruited for the study. Patients with mild to moderate PD (Hoehn and Yahr staging score of 1-3 assessed in the “On” state) maintained on stable PD therapy are randomly assigned to placebo or 5 cohorts of Compound 1 at 1 mg, 3 mg, 10 mg, 30 mg, and 90 mg administered orally once daily for 7 days. All patients participating in the study are maintained on their stable PD therapy (e.g., dopamine replacement therapies), some of which are taking more than one category of PD therapy. Of the 40 patients, there are 28 receiving carbidopa/L-dopa, 14 receiving a dopamine agonist, 5 receiving amantadine, and 3 receiving MAO inhibitors."}, "[2]": {"test_system": "patients with mild to moderate Parkinson's Disease (PD)", "assay": "Hauser Patient Motor Diary in the Phase 1/2 study", "conditions": "rated by subjects, oral once daily for 7 days", "protocol": "as §1, §3\n(§4) The efficacy of Compound 1 in improving motor and non-motor symptoms of PD is measured using multiple scales, providing input from both subjects and site raters. Motor performance was improved and motor complications were reduced in the “On” state by Compound 1 relative to placebo treatment as assessed by the Movement Disorder Society Unified Parkinson's Disease Rating Scale (MDS-UPDRS) (FIG. 1). […] (FIGS. 3-4)."}, "[3]": {"test_system": "patients with mild to moderate Parkinson's Disease (PD)", "assay": "CISI-PD (Clinical Impression of Severity Index for PD) in the Phase 1/2 study", "conditions": "versus placebo; FIG. 4", "protocol": "as §1, §3"}, "[4]": {"test_system": "patients with mild to moderate Parkinson's Disease (PD)", "assay": "Unified Dyskinesia Rating Scale (UDysRS) in the Phase 1/2 study", "conditions": "FIG. 2", "protocol": "as §1, §3, §4"}, "[5]": {"test_system": "patients with mild to moderate Parkinson's Disease (PD)", "assay": "Unified Parkinson's Disease Rating Scale (MDS-UPDRS) in the Phase 1/2 study", "protocol": "as §1, §3, §4"}, "[6]": {"assay": "Pharmacokinetic profile in the Phase 1/2 study", "protocol": "as §2, §3\nPlasma steady state is achieved in the first 48 hours and supports once-a-day dosing for future efficacy trials."}, "[7]": {"conditions": "\"On\" state, relative to placebo, FIG. 1"}}, "note": "“Also recorded” adds a separate entry of the source."}
{"smiles": "CN1C(=O)c2c(nn(Cc3ccc(-c4cccc(F)n4)cc3)c2Nc2ccccc2)N2C1=N[C@@H]1CCC[C@@H]12", "note": "[Compound 1, (6aR,9aS)-5,6a,7,8,9,9a-hexahydro-5-methyl-3-(phenylamino)-2-((4-(6-fluoropyridin-2-yl)phenyl)methyl)-cyclopent[4,5]imidazo[1,2-a]pyrazolo[4,3-e]pyrimidin-4(2H)-one]", "values": [{"measurement": "serious adverse events", "setting": "[1]; 1 mg to 90 mg orally once daily for 7 days", "result": "No serious adverse events"}, {"measurement": "induction or worsening of motor complications", "setting": "[1]; PD patients receiving concomitant dopamine replacement therapies", "result": "did not induce or worsen motor complications"}, {"measurement": "effects on vital signs, cardiovascular or laboratory parameters", "setting": "[1]; compared to placebo", "result": "no clinically significant effects"}, {"measurement": "tolerability", "setting": "[1]; once-daily oral for 7 days, doses from 1 mg to 90 mg", "result": "generally well tolerated"}, {"measurement": "safety profile", "setting": "[1]; once-daily oral for 7 days, no titration, 1 mg to 90 mg", "result": "favorable safety profile"}, {"measurement": "side effects of dopamine replacement therapies", "setting": "[1]; patients on dopamine replacement therapies", "result": "reduces the side effects"}, {"measurement": "total On time (Hauser Patient Motor Diary)", "setting": "[2]", "result": "increased"}, {"measurement": "\"On\" time without dyskinesias (Hauser Patient Motor Diary)", "setting": "[2]; versus placebo", "result": "increases on-time without causing dyskinesia; also recorded: increased"}, {"measurement": "CISI-PD Motor Complications Score", "setting": "[3]", "result": "reductions; also recorded: decreased"}, {"measurement": "dyskinesia symptoms / motor complications measured by UDysRS", "setting": "[4]; oral once daily for 7 days", "result": "reductions; also recorded: reduces dyskinesia symptoms"}, {"measurement": "Objective UDysRS Total Score", "setting": "[4]; subjects with dyskinesia at baseline, after treatment", "result": "Improves"}, {"measurement": "UPDRS scores at end of study (EOS)", "setting": "[5]; 30 days after cessation of treatment, FIG. 1", "result": "Scores increase"}, {"measurement": "motor complications (MDS-UPDRS)", "setting": "[5]; [7]", "result": "reduced"}, {"measurement": "motor performance (MDS-UPDRS)", "setting": "[5]; [7]", "result": "improved"}, {"measurement": "UPDRS scores", "setting": "[5]; by day 7 of treatment, PD patients on stable PD therapy, FIG. 1", "result": "decrease scores"}, {"measurement": "MDS-UPDRS total scale scores", "setting": "[5]; oral once daily for 7 days", "result": "reduces scores"}, {"measurement": "motor symptoms (UPDRS Part III; clinician ratings of the motor manifestations of PD)", "setting": "[5]; oral once daily for 7 days, on stable PD therapy", "result": "reductions; also recorded: reduces scores"}, {"measurement": "motor complications including dyskinesias (UPDRS Part IV subscale)", "setting": "[5]; oral once daily for 7 days, Part IV data not shown", "result": "reductions; also recorded: reduces scores"}, {"measurement": "time to plasma steady state", "setting": "[6]; once daily oral dosing", "result": "≤ 48", "unit": "h"}, {"measurement": "pharmacokinetics (dose linearity)", "setting": "[6]; parent drug and metabolites, across 1 mg to 90 mg", "result": "linear pharmacokinetics"}]}
